Experimental data as given in patent US20050009005A1, “Methods of using quantitative lipid metabolome data” (Lipomics Technologies, Inc., priority 2001, published 2005).

Tested on: de novo fatty acid synthesis
Assay: Lipid metabolite profile of plasma, heart, liver and inguinal adipose of CL316,243-treated mice (trial 2; Tables 7 and 8)
Format: in vivo
Details: mean
Source text: It is understood that the described methods can be used to analyze lipid metabolites from other subjects, including particularly animals other than mice.
Mouse tissue and plasma samples were a generous donation to Lipomics Technologies, Inc., from Dr. Edward Leiter of the Jackson Laboratory (Bar Harbor, Me.). Samples included the plasma, heart, liver and inguinal adipose of mice treated with pharmaceuticals or their corresponding controls.
In trial 2, male, inbred NON mice were fed a control with or without the presence of the β-3 adrenergic agonist CL316,243 for four weeks (at 0.001% CL316,243 by weight in the dietary chow).
In both studies, five treated and five control mice were used. Following the treatments and the killing of the mice, tissues and plasma were taken, chilled to −80 ° C. and shipped to the analysis laboratory at Lipomics Technologies in a frozen state.
Tissue processing and lipid extraction, including provision of internal standards, was carried out essentially as described in Watkins et al. (J. Lipid Res. Papers in Press, 10.1184/jlf.M200169-JLF200, published August 16, 2002), and in co-owned international application PCT/US02/21426, entitled “GENERATING, VIEWING, INTERPRETING, AND UTILIZING A QUANTITATIVE DATABASE OF METABOLITES,” both of which are incorporated in their entirety herein by reference.
The separation of lipid classes was performed in some instance by preparative thin-layer chromatography (TLC). To remove any residual metal or other damaging contaminants on the TLC plates, each plate was washed prior to use. Washing the plates is a three-step process that involves impregnating each plate with ethylenediamine tetraacetic acid (EDTA) and rinsing the plates once with methanol and once with chloroform. Each plate is first impregnated with 1 mM EDTA, pH 5.5, by ascending development using the method of Ruiz (J. Lipid Res. 38, 1482-1489, 1997). After each plate was completely developed, it was dried in air overnight. Once dry, each plate was developed in methanol, dried, and developed in chloroform in the same direction as the development with EDTA. The washed plates were then dried in air. Just prior to use, each plate was activated by heating to 110° C. for 10 minutes.
To prepare the TLC chamber for chromatography, Whatman (Clifton, N.J.) filter paper was cut into 20×80-cm strips and wrapped around the inside wall of a 30×60×10-cm glass development chamber. One hundred milliliters of the appropriate mobile phase was added to the chamber, and the chambers were sealed and allowed to equilibrate. Chambers were considered equilibrated when the solvent front had completely ascended the filter paper. The mobile phase employed for the separation of phospholipid classes (lyso-phospholipids, sphingomyelin, phosphatidylcholine, phosphatidylserine, phosphatidylethanolamine and cardiolipin) was a modification of the solvent system described by Holub and Skeaf (“Nutritional regulation of cellular phosphatidylinositol,” in Methods in Enzymology, ed. Conn, P. M. (Academic Press, Inc., Orlando), pp. 234-243, 1987) consisting of chloroform/methanol/acetic acid/water (100:67:7:4, by volume).
For the separation of neutral lipid classes (free fatty acids, free sterols, triacylglycerides and cholesterol esters), a solvent system consisting of petroleum ether/diethyl ether/acetic acid (80:20:1, by volume) was used (Mangold, Thin Layer Chromatography—A Laboratory Handbook (Springer-Verlag, New York), 1969).
After the TLC plate was activated, the sample extracts were spotted onto the activated plate. As a general rule, samples were spotted at an estimated concentration such that no single lipid class was present at more than 25 jig per centimeter of plate width following chromatography. This ensured that the plate was not overloaded and minimized the risk of cross-contamination between lipid classes (cross-contamination is readily identified during sample analysis as each lipid class contains unique internal standards). […]

C[C@H](Cc1ccc2c(c1)OC(C(=O)[O-])(C(=O)[O-])O2)NC[C@H](O)c1cccc(Cl)c1.[Na+].[Na+] [CL316,243]
16:0 (Heart, PS/I): 302.1 nanomoles per gram
16:1n7 (Heart, PS/I): 48.6 nanomoles per gram
18:0 (Heart, PS/I): 2823.7 nanomoles per gram
18:1n7 (Heart, PS/I): 73.5 nanomoles per gram
18:1n9 (Heart, PS/I): 572.9 nanomoles per gram
14:0 (Heart, TAG): 78.8 nanomoles per gram
16:0 (Heart, TAG): 651.6 nanomoles per gram
16:1n7 (Heart, TAG): 57.3 nanomoles per gram
18:0 (Heart, TAG): 195.5 nanomoles per gram
18:1n7 (Heart, TAG): 28.0 nanomoles per gram
18:1n9 (Heart, TAG): 402.8 nanomoles per gram
14:0 (Heart, lipid class CE): 5.1 percentage of total fatty acids
16:0 (Heart, lipid class CE): 15.4 percentage of total fatty acids
16:1n7 (Heart, lipid class CE): 2.9 percentage of total fatty acids
18:0 (Heart, lipid class CE): 7.0 percentage of total fatty acids
18:1n7 (Heart, lipid class CE): 1.5 percentage of total fatty acids
18:1n9 (Heart, lipid class CE): 30.1 percentage of total fatty acids
Saturates (Heart, lipid class CE): 30.3 percentage of total fatty acids
Total (Heart, lipid class CE): 100.0 percentage of total fatty acids
Total n7 (Heart, lipid class CE): 4.4 percentage of total fatty acids
Total n9 (Heart, lipid class CE): 31.5 percentage of total fatty acids
14:0 (Heart, lipid class CL): 0.6 percentage of total fatty acids
16:0 (Heart, lipid class CL): 2.0 percentage of total fatty acids
16:1n7 (Heart, lipid class CL): 1.7 percentage of total fatty acids
18:0 (Heart, lipid class CL): 3.3 percentage of total fatty acids
18:1n7 (Heart, lipid class CL): 3.2 percentage of total fatty acids
18:1n9 (Heart, lipid class CL): 8.0 percentage of total fatty acids
Saturates (Heart, lipid class CL): 6.5 percentage of total fatty acids
Total (Heart, lipid class CL): 25.0 percentage of total fatty acids
Total n7 (Heart, lipid class CL): 4.9 percentage of total fatty acids
Total n9 (Heart, lipid class CL): 8.5 percentage of total fatty acids
14:0 (Heart, lipid class FFA): 2.9 percentage of total fatty acids
16:0 (Heart, lipid class FFA): 17.8 percentage of total fatty acids
16:1n7 (Heart, lipid class FFA): 2.3 percentage of total fatty acids
18:0 (Heart, lipid class FFA): 7.4 percentage of total fatty acids
18:1n7 (Heart, lipid class FFA): 2.2 percentage of total fatty acids
18:1n9 (Heart, lipid class FFA): 29.9 percentage of total fatty acids
Saturates (Heart, lipid class FFA): 29.2 percentage of total fatty acids
Total (Heart, lipid class FFA): 100.0 percentage of total fatty acids
Total n7 (Heart, lipid class FFA): 4.5 percentage of total fatty acids
Total n9 (Heart, lipid class FFA): 30.8 percentage of total fatty acids
14:0 (Heart, lipid class PC): 0.3 percentage of total fatty acids
16:0 (Heart, lipid class PC): 26.9 percentage of total fatty acids
16:1n7 (Heart, lipid class PC): 0.4 percentage of total fatty acids
18:0 (Heart, lipid class PC): 17.4 percentage of total fatty acids
18:1n7 (Heart, lipid class PC): 1.9 percentage of total fatty acids
18:1n9 (Heart, lipid class PC): 6.6 percentage of total fatty acids
Saturates (Heart, lipid class PC): 45.0 percentage of total fatty acids
Total (Heart, lipid class PC): 50.0 percentage of total fatty acids
Total n7 (Heart, lipid class PC): 2.2 percentage of total fatty acids
Total n9 (Heart, lipid class PC): 6.8 percentage of total fatty acids
14:0 (Heart, lipid class PE): 0.1 percentage of total fatty acids
16:0 (Heart, lipid class PE): 9.3 percentage of total fatty acids
16:1n7 (Heart, lipid class PE): 0.3 percentage of total fatty acids
18:0 (Heart, lipid class PE): 26.7 percentage of total fatty acids
18:1n7 (Heart, lipid class PE): 1.3 percentage of total fatty acids
18:1n9 (Heart, lipid class PE): 4.8 percentage of total fatty acids
Saturates (Heart, lipid class PE): 36.5 percentage of total fatty acids
Total (Heart, lipid class PE): 50.0 percentage of total fatty acids
Total n7 (Heart, lipid class PE): 1.6 percentage of total fatty acids
Total n9 (Heart, lipid class PE): 5.0 percentage of total fatty acids
14:0 (Heart, lipid class PL): 0.3 percentage of total fatty acids
16:0 (Heart, lipid class PL): 16.0 percentage of total fatty acids
16:1n7 (Heart, lipid class PL): 0.5 percentage of total fatty acids
18:0 (Heart, lipid class PL): 19.8 percentage of total fatty acids
18:1n7 (Heart, lipid class PL): 1.8 percentage of total fatty acids
18:1n9 (Heart, lipid class PL): 6.1 percentage of total fatty acids
Saturates (Heart, lipid class PL): 37.0 percentage of total fatty acids
Total (Heart, lipid class PL): 50.0 percentage of total fatty acids
Total n7 (Heart, lipid class PL): 2.3 percentage of total fatty acids
Total n9 (Heart, lipid class PL): 6.5 percentage of total fatty acids
14:0 (Heart, lipid class PS/I): 0.4 percentage of total fatty acids
16:0 (Heart, lipid class PS/I): 3.5 percentage of total fatty acids
16:1n7 (Heart, lipid class PS/I): 0.6 percentage of total fatty acids
18:0 (Heart, lipid class PS/I): 33.1 percentage of total fatty acids
18:1n7 (Heart, lipid class PS/I): 0.9 percentage of total fatty acids
18:1n9 (Heart, lipid class PS/I): 6.7 percentage of total fatty acids
Saturates (Heart, lipid class PS/I): 38.0 percentage of total fatty acids
Total (Heart, lipid class PS/I): 50.0 percentage of total fatty acids
Total n7 (Heart, lipid class PS/I): 1.4 percentage of total fatty acids
Total n9 (Heart, lipid class PS/I): 7.1 percentage of total fatty acids
14:0 (Heart, lipid class TAG): 4.1 percentage of total fatty acids
16:0 (Heart, lipid class TAG): 34.2 percentage of total fatty acids
16:1n7 (Heart, lipid class TAG): 2.9 percentage of total fatty acids
18:0 (Heart, lipid class TAG): 10.1 percentage of total fatty acids
18:1n7 (Heart, lipid class TAG): 1.5 percentage of total fatty acids
18:1n9 (Heart, lipid class TAG): 21.5 percentage of total fatty acids
Saturates (Heart, lipid class TAG): 51.9 percentage of total fatty acids
Total (Heart, lipid class TAG): 33.3 percentage of total fatty acids
Total n7 (Heart, lipid class TAG): 4.4 percentage of total fatty acids
Total n9 (Heart, lipid class TAG): 22.9 percentage of total fatty acids
14:0 (Liver, CE): 45.5 nanomoles per gram
16:0 (Liver, CE): 462.8 nanomoles per gram
16:1n7 (Liver, CE): 84.4 nanomoles per gram
18:0 (Liver, CE): 121.3 nanomoles per gram
18:1n7 (Liver, CE): 31.5 nanomoles per gram
18:1n9 (Liver, CE): 455.4 nanomoles per gram
Saturates (Liver, CE): 668.6 nanomoles per gram
Total n7 (Liver, CE): 115.9 nanomoles per gram
Total n9 (Liver, CE): 482.4 nanomoles per gram
Total nMole of FA (Liver, CE): 1764.6 nanomoles per gram
14:0 (Liver, CL): 21.3 nanomoles per gram
16:0 (Liver, CL): 254.3 nanomoles per gram
16:1n7 (Liver, CL): 85.8 nanomoles per gram
18:0 (Liver, CL): 260.0 nanomoles per gram
18:1n7 (Liver, CL): 215.4 nanomoles per gram
18:1n9 (Liver, CL): 437.0 nanomoles per gram
Saturates (Liver, CL): 556.4 nanomoles per gram
Total n7 (Liver, CL): 301.2 nanomoles per gram
Total n9 (Liver, CL): 473.0 nanomoles per gram
Total nMole of FA (Liver, CL): 1255.5 nanomoles per gram
14:0 (Liver, FFA): 152.9 nanomoles per gram
16:0 (Liver, FFA): 2280.7 nanomoles per gram
16:1n7 (Liver, FFA): 375.0 nanomoles per gram
18:0 (Liver, FFA): 460.2 nanomoles per gram
18:1n7 (Liver, FFA): 273.5 nanomoles per gram
18:1n9 (Liver, FFA): 2293.4 nanomoles per gram
Saturates (Liver, FFA): 2951.3 nanomoles per gram
Total n7 (Liver, FFA): 648.5 nanomoles per gram
Total n9 (Liver, FFA): 2337.2 nanomoles per gram
